{"source": "patent US8933018B2", "about": "“Boron containing polybasic bacterial efflux pump inhibitors and therapeutic uses thereof” (priority 2011, dated 2015)"}
{"test_system": "P. aeruginosa, PAM1723, overexpressing the MexAB-OprM efflux pump", "format": "cell-based, Pseudomonas aeruginosa", "conditions": "lowest EPI concentration giving antibacterial activity with levofloxacin at 1/8 of its MIC, MHB, 20 h at 35° C.", "method": "All EPI compounds were readily soluble in water and stock solutions were prepared at a final concentration of 10 mg/ml. Stock solutions were further diluted, according to the needs of the particular assay, in Mueller Hinton Broth (MHB). Stock solution was stored at […].\nThe checkerboard assay was performed in microtiter plates. […] EPIs were diluted in the y-axis, each row containing a single concentration of an EPI. […] The assay was performed in MHB with a final bacterial inoculum of 5 times 10^5 CFU/ml (from an early-log phase culture). Microtiter plates were incubated during 20 h at 35° C. and were read using a microtiter plate reader (Molecular Devices) at 650 nm as well as visual observation using a microtiter plate-reading mirror."}
{"molecule": "CC1(C)OB(O)c2cc(NC(=O)[C@@H](Cc3ccc(C(F)(F)F)cc3)NC(=O)[C@@H](N)CCCNC(=O)C(CN)CN)ccc21", "note": "[Compound 104, (S)-2-amino-5-(3-amino-2-(aminomethyl)propanamido)-N-((R)-1-(1-hydroxy-3,3-dimethyl-1,3-dihydrobenzo[c][1,2]oxaborol-6-ylamino)-1-oxo-3-(4-(trifluoromethyl)phenyl)propan-2-yl)pentanamide]", "MPC8 (Minimum Potentiating Concentration)": "B (B = MPC8 of 2.5 μg/ml to less than 10 μg/mL.)"}
{"molecule": "NCCN(CCN)C(=O)CC[C@H](N)C(=O)N[C@H](CCc1ccc(C(F)(F)F)cc1)C(=O)Nc1cc(B(O)O)cc(C(F)(F)F)c1", "note": "[Compound 13, 3-((R)-2-((S)-2-amino-5-(bis(2-aminoethyl)amino)-5-oxopentanamido)-4-(4-(trifluoromethyl)phenyl)butanamido)-5-(trifluoromethyl)phenylboronic acid]", "MPC8 (Minimum Potentiating Concentration)": "B (B = MPC8 of 2.5 μg/ml to less than 10 μg/mL.)"}
{"molecule": "NCCN(CCN)C(=O)CC[C@H](N)C(=O)N[C@H](Cc1ccc(C(F)(F)F)cc1)C(=O)Nc1ccc(B(O)O)c(C(F)(F)F)c1", "note": "[Compound 17, 4-((R)-2-((S)-2-amino-5-(bis(2-aminoethyl)amino)-5-oxopentanamido)-3-(4-(trifluoromethyl)phenyl)propanamido)-2-(trifluoromethyl)phenylboronic acid]", "MPC8 (Minimum Potentiating Concentration)": "C (C = MPC8 of 10 μg/mL or greater.)"}
{"molecule": "CC1(C)OB(O)c2ccc(NC(=O)[C@@H](CCc3ccc(C(F)(F)F)cc3)NC(=O)[C@@H](N)CCC(=O)NC(CN)CN)cc21", "note": "[Compound 96, (S)-2-amino-N^5-(1,3-diaminopropan-2-yl)-N^1-((R)-1-(1-hydroxy-3,3-dimethyl-1,3-dihydrobenzo[c][1,2]oxaborol-5-ylamino)-1-oxo-4-(4-(trifluoromethyl)phenyl)butan-2-yl)pentanediamide]", "MPC8 (Minimum Potentiating Concentration)": "A (A = MPC8 of less than 2.5 μg/mL.)"}
{"molecule": "CC1(C)OB(O)c2cc(NC(=O)[C@@H](CCc3ccc(C(F)(F)F)cc3)NC(=O)[C@@H](N)CCC(=O)N[C@@H]3C[C@H](N)C[C@H](N)C3)ccc21", "note": "[Compound 38, (S)-2-amino-N5-((1s,3R,5S)-3,5-diaminocyclohexyl)-N1-((R)-1-(1-hydroxy-3,3-dimethyl-1,3-dihydrobenzo[c][1,2]oxaborol-6-ylamino)-1-oxo-4-(4-(trifluoromethyl)phenyl)butan-2-yl)pentanediamide]", "MPC8 (Minimum Potentiating Concentration)": "A (A = MPC8 of less than 2.5 μg/mL.)"}
{"molecule": "NCCN(CCN)C(=O)CC[C@H](N)C(=O)N[C@@H](Cc1ccc(C(F)(F)F)cc1)C(=O)Nc1ccccc1B(O)O", "note": "[Compound 9, 2-((S)-2-((S)-2-amino-5-(bis(2-aminoethyl)amino)-5-oxopentanamido)-3-(4-(trifluoromethyl)phenyl)propanamido)phenylboronic acid]", "MPC8 (Minimum Potentiating Concentration)": "C (C = MPC8 of 10 μg/mL or greater.)"}
{"molecule": "NCCN(CCN)C(=O)C[C@H](N)C(=O)N[C@@H](Cc1ccc(C(F)(F)F)cc1)C(=O)Nc1cc(B(O)O)cc(C(F)(F)F)c1", "note": "[Compound 11, 3-((S)-2-((S)-2-amino-4-(bis(2-aminoethyl)amino)-4-oxobutanamido)-3-(4-(trifluoromethyl)phenyl)propanamido)-5-(trifluoromethyl)phenylboronic acid]", "MPC8 (Minimum Potentiating Concentration)": "B (B = MPC8 of 2.5 μg/ml to less than 10 μg/mL.)"}
{"molecule": "CC1(C)OB(O)c2c(NC(=O)[C@@H](CCc3ccc(C(F)(F)F)cc3)NC(=O)[C@@H](N)CCC(=O)N(CCN)CCN)cccc21", "note": "[Compound 102, (S)-2-amino-N^5,N^5-bis(2-aminoethyl)-N^1-((R)-1-(1-hydroxy-3,3-dimethyl-1,3-dihydrobenzo[c][1,2]oxaborol-7-ylamino)-1-oxo-4-(4-(trifluoromethyl)phenyl)butan-2-yl)pentanediamide]", "MPC8 (Minimum Potentiating Concentration)": "B (B = MPC8 of 2.5 μg/ml to less than 10 μg/mL.)"}
